Series [1] deals with T1, Mu-type opioid receptor (Homo sapiens, UniProt P35372). The experiment in a line: Displacement of [3H]DAMGO from MOP receptor expressed in CHO-K1 cells after overnight incubation by beta counting method. In kind it is cell-based. (In general: Displacement assays read how much labelled ligand stays bound in the presence of the test substance.)
Series [2] in a line: Half life in human Caco2 cell homogenate at 200 uM by LC/MS analysis. In kind it is ADME, Colon. The following applies: Caco-2 cell homogenate.
The target in series [3] is Delta-type opioid receptor (Homo sapiens, UniProt P41143). The experiment in a line: Displacement of [3H]DPDPE from DOP receptor expressed in CHO-K1 cells after overnight incubation by beta counting method. It is filed as cell-based.
The next series deals with CHO-K1. The experiment in a line: Selectivity ratio of Ki for DOP receptor expressed in CHO-K1 cells to Ki for MOP receptor expressed in CHO-K1 cells. It is filed as cell-based.
Series [4] deals with T1, Mu-type opioid receptor. The experiment in a line: Agonist activity at MOP receptor expressed in CHO-K1 cells assessed as inhibition of forskolin-stimulated cAMP accumulation after 30 mins. It is filed as functional, cell-based. On the technique in general: Cyclic AMP is a second messenger, typically raised through Gs and lowered through Gi signalling.
The nature of another series: in vitro. The following applies: human, Caco-2.

Non-standard residues stand in square brackets, D forms with d. Residues, ends and D or L forms follow the SMILES beside them. ξ: configuration not given here. ξGly(octyl) = CCCCCCCCC(N)C(=O)O

T1 sequence (P35372 whole entry): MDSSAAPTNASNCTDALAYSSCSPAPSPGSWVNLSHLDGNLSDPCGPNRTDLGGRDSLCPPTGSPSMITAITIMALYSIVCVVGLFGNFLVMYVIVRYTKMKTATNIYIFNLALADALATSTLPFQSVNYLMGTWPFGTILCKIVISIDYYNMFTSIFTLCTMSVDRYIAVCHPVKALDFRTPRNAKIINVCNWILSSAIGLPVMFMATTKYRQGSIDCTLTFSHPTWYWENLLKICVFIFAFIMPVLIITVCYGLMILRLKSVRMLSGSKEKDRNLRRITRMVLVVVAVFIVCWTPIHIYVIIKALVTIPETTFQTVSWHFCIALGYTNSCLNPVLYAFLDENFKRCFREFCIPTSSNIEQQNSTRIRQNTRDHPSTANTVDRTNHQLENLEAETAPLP
Chain of Delta-type opioid receptor (P41143 whole entry): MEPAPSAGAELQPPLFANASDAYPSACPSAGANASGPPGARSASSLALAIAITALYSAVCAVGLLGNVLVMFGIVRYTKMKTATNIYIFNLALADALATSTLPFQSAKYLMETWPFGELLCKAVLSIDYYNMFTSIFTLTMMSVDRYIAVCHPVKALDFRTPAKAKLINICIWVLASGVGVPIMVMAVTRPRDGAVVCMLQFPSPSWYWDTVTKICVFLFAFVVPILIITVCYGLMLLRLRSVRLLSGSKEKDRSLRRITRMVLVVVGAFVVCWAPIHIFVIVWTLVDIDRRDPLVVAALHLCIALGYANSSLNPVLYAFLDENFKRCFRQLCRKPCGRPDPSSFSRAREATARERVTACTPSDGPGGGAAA
Description for in vitro: Apparent permeability across human Caco2 cells st 200 uM measured over 150 mins by LC/MS analysis

Usually Ki stands for the dissociation constant of the complex between target and ligand, obtained from inhibition or displacement. A low value points to a stronger hold on the target. One may read the half-life as the time needed for the level to fall by half in the phase considered. A lower half-life goes with fast loss. By IC50 is commonly meant the concentration that gives 50% inhibition. By Papp is commonly meant a coefficient for how fast a substance crosses the barrier. At Mu-type opioid receptor [1], `CCCCCCCCC(N)C(=O)N[C@@H](Cc1ccc(O)cc1)C(=O)N1CCC[C@H]1C(=O)N[C@@H](Cc1c[nH]c2ccccc12)C(=O)N[C@@H](Cc1ccccc1)C(=O)N[C@@H](Cc1ccccc1)C(=O)NCC(=O)N[C@@H](CC(C)C)C(=O)N[C@@H](CCSC)C(N)=O` (stereo partly drawn) (H-[ξGly(octyl)]YPWFFGLM-NH2) showed a Ki of 3.87 nM. Moreover, in series [2], the half-life at 200 µM is 75.8 min. In series [3], this compound showed a Ki of 1230 nM. The Ratio Ki with CHO-K1 worked out at 318. Further, on Mu-type opioid receptor [4], the IC50 is 45 nM and the inhibition entry is “Dose-dependent effect”. Moreover, the Papp at 2.5 h, 200 µM in the series “in vitro” turned out to be 10.2 ×10⁻⁶ cm/s.
With `CCCCCCCCC(N)C(=O)N[C@@H](Cc1ccc(O)cc1)C(=O)N1CCC[C@H]1C(=O)N[C@@H](Cc1c[nH]c2ccccc12)C(=O)N[C@@H](Cc1ccccc1)C(=O)NCC(=O)N[C@@H](CC(C)C)C(=O)N[C@@H](CCSC)C(N)=O` (stereo partly drawn) (H-[ξGly(octyl)]YPWFGLM-NH2), the Ki was determined as 132 nM at Mu-type opioid receptor [1] and 2250 nM in series [3]. Also, the half-life at 200 µM in series [2] amounted to 52.5 min. The Ratio Ki in the series on CHO-K1 came to 17. In addition, in the series “in vitro”, the Papp at 2.5 h, 200 µM was determined as 8.08 ×10⁻⁶ cm/s.
In turn, `NC(=O)[C@H](Cc1ccccc1)NC(=O)[C@H](Cc1c[nH]c2ccccc12)NC(=O)[C@@H]1CCCN1C(=O)[C@@H](N)Cc1ccc(O)cc1` [ENDOMORPHIN-1] registered a half-life at 200 µM in series [2] of 5.6 min. In addition, the Papp at 2.5 h, 200 µM in the series “in vitro” was 1.01 ×10⁻⁶ cm/s.
As for `OC[C@@H](O)[C@@H](O)[C@H](O)[C@H](O)CO` [MANNITOL], in “in vitro”, the Papp at 2.5 h, 200 µM worked out at 0.488 ×10⁻⁶ cm/s.
Still for that read-out and setting: with `CC(C)NCC(O)COc1cccc2ccccc12` (stereo not drawn) [PROPRANOLOL] the figure was 30.5 ×10⁻⁶ cm/s.
In turn, H-YPWFFGLM-NH2 gave a Ki at Mu-type opioid receptor [1] of 0.73 nM. Moreover, the half-life at 200 µM in series [2] was found to be 15.6 min. In addition, affinity in series [3] was put at a Ki of 1560 nM. Besides, the Ratio Ki with CHO-K1 was 2130. For the same compound, at Mu-type opioid receptor [4], the IC50 is 12 nM and the inhibition entry was “Dose-dependent effect”. The compound further had a Papp at 2.5 h, 200 µM in the series “in vitro” of 2.04 ×10⁻⁶ cm/s.
H-YPWFGLM-NH2: the inhibitory constant (Ki) was 1.6 nM on Mu-type opioid receptor [1] and 1980 nM in series [3]. In series [2], this compound gave a half-life at 200 µM of 10.7 min. In addition, in the series with CHO-K1, the Ratio Ki is 1240. The compound also gave a Papp at 2.5 h, 200 µM in “in vitro” of 1.41 ×10⁻⁶ cm/s.

These data come from ChEMBL document CHEMBL2157899 (Bioorg Med Chem, 2012).
